Assay results: patent US20240058413A1, “GRAPE SEED EXTRACT PREPARATION PROCESS AND EXTRACTS THUS OBTAINED” (Distillerie Bonollo Umberto - S.P.A. Con Sigla "U.B. S.P.A.", priority 2020, published 2024)

Tests used:
[1] = ORAC test (Oxygen Radical Absorbance Capacity); details: fluorescence decay under peroxyl radical flow; Trolox as reference standard
Excerpt: ORAC Test The ORAC method (Oxygen Radical Absorbance Capacity) is one of the most common methods for determining radical trapping capacity against peroxyl radicals. The principle of the test is based on the measurement of the decrease in the fluorescence intensity of a fluorescent target molecule (for example fluorescein), under a constant flow of peroxyl radicals, generated by the thermal decomposition of an azo compound. The results are expressed as equivalent Trolox® micromoles, using this compound as the reference standard.

[2] = DPPH test (antioxidant power); details: decrease of DPPH radical peak at 517 nm, spectrophotometry
Procedure: DPPH Test The DPPH test allows determining the antioxidant power by reacting the sample to be analyzed with a solution of DPPH [2,2-diphenyl-1-picrylhydrazyl, PM 394.33, […]] and analyzing the decrease in the peak at 517 of the DPPH^• radical at UV. Antioxidant compounds which are capable of transferring a hydrogen atom to the radical cause a loss of absorbance of the solution. The decrease of the DPPH^• radical peak at 517 nm is then analyzed by spectrophotometry after a predetermined incubation time. This decrease (discoloration) is proportional to the antioxidant load present in the sample. The results can also be expressed as IC50, i.e., the concentration of antioxidant compound which causes an initial 50% decrease in DPPH^•.

With `O=C1O[C@H]([C@@H](O)CO)C(O)=C1O` [Ascorbic acid] the ORAC [1] was 2900 ± 310 μmol Trolox ® equivalent/g of sample and the “DPPH IC50” value [2] was 7.196 ± 0.852 µg/mL.
